The source made the active and inactive calls. No cut-off for these calls is given here.
Columns and labels:
Mus musculus [1] = assay: Cardioprotective activity in C57BL mouse model of left anterior descending coronary artery ligation-induced myocardial ischemia assessed as reduction in heart infarct size at 0.05 to 1 mg/kg, iv pretreated for 1 hr followed by left anterior descending coronary artery ligation; assay type: functional, organism-based
[2] = target: T1, Toll-like receptor 4 (Rattus norvegicus) (UniProt Q9QX05); assay: Inhibition of TLR4 in Sprague-Dawley rat cardiomyocytes assessed as reduction in hypoxia-induced creatine kinase levels at 5 uM preincubated for 1 hr followed by hypoxia for 3 hrs by NADP reduction based colorimetric analysis; assay type: cell-based
T1 sequence (whole entry): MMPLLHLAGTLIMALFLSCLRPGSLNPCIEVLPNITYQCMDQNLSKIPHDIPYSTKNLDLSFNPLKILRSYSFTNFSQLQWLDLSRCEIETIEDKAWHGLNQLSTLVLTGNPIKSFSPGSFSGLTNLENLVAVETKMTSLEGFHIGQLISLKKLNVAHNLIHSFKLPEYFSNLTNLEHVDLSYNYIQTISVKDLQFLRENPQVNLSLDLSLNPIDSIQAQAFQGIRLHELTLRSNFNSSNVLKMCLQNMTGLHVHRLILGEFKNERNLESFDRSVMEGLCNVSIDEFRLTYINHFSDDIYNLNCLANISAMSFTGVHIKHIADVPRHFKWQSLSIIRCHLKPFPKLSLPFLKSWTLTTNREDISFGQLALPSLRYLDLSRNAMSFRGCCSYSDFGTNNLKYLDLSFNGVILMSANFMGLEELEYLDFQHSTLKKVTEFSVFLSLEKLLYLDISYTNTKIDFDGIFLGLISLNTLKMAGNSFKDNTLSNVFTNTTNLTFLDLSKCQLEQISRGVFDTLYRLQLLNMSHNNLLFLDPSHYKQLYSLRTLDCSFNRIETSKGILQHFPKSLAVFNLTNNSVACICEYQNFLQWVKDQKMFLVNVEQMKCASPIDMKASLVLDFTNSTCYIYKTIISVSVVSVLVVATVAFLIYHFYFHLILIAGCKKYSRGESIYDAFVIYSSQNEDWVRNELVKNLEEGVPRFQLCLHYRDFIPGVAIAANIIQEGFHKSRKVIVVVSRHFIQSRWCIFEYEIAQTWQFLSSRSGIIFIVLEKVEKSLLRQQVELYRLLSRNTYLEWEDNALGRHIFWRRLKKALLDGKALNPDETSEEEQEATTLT

[3] = Hepatotoxicity in C57BL mouse model of left anterior descending coronary artery ligation-induced myocardial ischemia assessed as effect on serum AST levels at 0.05 to 1 mg/kg, iv pretreated for 1 hr followed by left anterior descending coronary artery ligation; assay type: toxicity, organism-based; conditions: in vivo
Mus musculus [4] = assay: Cardioprotective activity in C57BL mouse model of left anterior descending coronary artery ligation-induced myocardial ischemia assessed as reduction in heart infarct size at 0.3 mg/kg, iv pretreated for 1 hr followed by left anterior descending coronary artery ligation; assay type: functional, organism-based
[5] = target: T1, Toll-like receptor 4 (Rattus norvegicus); assay: Inhibition of TLR4 in Sprague-Dawley rat cardiomyocytes assessed as reduction in hypoxia-induced LDH release at 20 uM preincubated for 1 hr followed by hypoxia for 3 hrs by NADH detection based colorimetric analysis; assay type: cell-based
[6] = target: T1, Toll-like receptor 4 (Rattus norvegicus); assay: Inhibition of TLR4 in Sprague-Dawley rat cardiomyocytes assessed as reduction in hypoxia-induced creatine kinase levels at 10 uM preincubated for 1 hr followed by hypoxia for 3 hrs by NADP reduction based colorimetric analysis; assay type: cell-based
Mus musculus [7] = assay: Cardioprotective activity in C57BL mouse model of left anterior descending coronary artery ligation-induced myocardial ischemia assessed as reduction in fibrosis at 0.3 mg/kg, iv treated 1 hr after left anterior descending coronary artery ligation and measured after 7 days post LAD by hematoxylin/eosin staining based light microscopy; assay type: functional, organism-based
[8] = Reduction in hypoxia-induced TLR4 mRNA expression in Sprague-Dawley rat cardiomyocytes at 20 uM preincubated for 1 hr followed by hypoxia for 3 hrs by RT-qPCR analysis relative to untreated control; assay type: functional, Cardiac muscle cell
Cardiac muscle cell = assay: Cytotoxicity against Sprague-Dawley rat cardiomyocytes assessed as reduction in cell viability at 50 uM; assay type: cell-based
[9] = target: T1, Toll-like receptor 4 (Rattus norvegicus); assay: Inhibition of TLR4 in Sprague-Dawley rat cardiomyocytes assessed as reduction in hypoxia-induced LDH levels by measuring NADH levels at 20 uM preincubated for 1 hr followed by induction of hypoxia measured after 3 hrs by colorimetric analysis; assay type: cell-based
[10] = target: T1, Toll-like receptor 4 (Rattus norvegicus); assay: Inhibition of TLR4 in Sprague-Dawley rat cardiomyocytes assessed as reduction in hypoxia-induced LDH release at 10 uM preincubated for 1 hr followed by hypoxia for 3 hrs by NADH detection based colorimetric analysis; assay type: cell-based
[11] = target: T1, Toll-like receptor 4 (Rattus norvegicus); assay: Inhibition of TLR4 in Sprague-Dawley rat cardiomyocytes assessed as reduction in hypoxia-induced TRAM protein expression at 20 uM preincubated for 1 hr followed by hypoxia for 3 hrs by Western blot analysis relative to untreated control; assay type: cell-based
Mus musculus [12] = assay: Cardioprotective activity in C57BL mouse model of left anterior descending coronary artery ligation-induced myocardial ischemia assessed as reduction in serum LDH levels at 0.3 mg/kg, iv treated 1 hr after by left anterior descending coronary artery ligation and measured after 7 days post LAD; assay type: functional, organism-based
[13] = target: T1, Toll-like receptor 4 (Rattus norvegicus); assay: Inhibition of TLR4 in Sprague-Dawley rat cardiomyocytes assessed as reduction in hypoxia-induced creatine kinase levels at 30 uM preincubated for 1 hr followed by hypoxia for 3 hrs by NADP reduction based colorimetric analysis; assay type: cell-based
[14] = Reduction in hypoxia-induced TLR4 protein expression in Sprague-Dawley rat cardiomyocytes at 20 uM preincubated for 1 hr followed by hypoxia for 3 hrs by Western blot analysis relative to untreated control; assay type: functional, Cardiac muscle cell
[15] = target: T1, Toll-like receptor 4 (Rattus norvegicus); assay: Inhibition of TLR4 in hypoxia-induced Sprague-Dawley rat cardiomyocytes assessed as increase in IkappaB-alpha protein expression at 20 uM preincubated for 1 hr followed by hypoxia for 3 hrs by Western blot analysis relative to untreated control
[16] = target: T1, Toll-like receptor 4 (Rattus norvegicus); assay: Inhibition of TLR4 in Sprague-Dawley rat cardiomyocytes assessed as reduction in hypoxia-induced IL-1beta mRNA expression at 20 uM preincubated for 1 hr followed by hypoxia for 3 hrs by RT-qPCR analysis; assay type: cell-based
[17] = target: T1, Toll-like receptor 4 (Rattus norvegicus); assay: Inhibition of TLR4 in Sprague-Dawley rat cardiomyocytes assessed as reduction in hypoxia-induced LDH release at 5 uM preincubated for 1 hr followed by hypoxia for 3 hrs by NADH detection based colorimetric analysis; assay type: cell-based
Mus musculus [18] = assay: Cardioprotective activity in C57BL mouse model of left anterior descending coronary artery ligation-induced myocardial ischemia assessed as reduction in serum LDH levels at 0.3 mg/kg, iv treated for 1 hr after by left anterior descending coronary artery ligation and measured after 24 hrs post LAD; assay type: functional, organism-based
Mus musculus [19] = assay: Cardioprotective activity in C57BL mouse model of left anterior descending coronary artery ligation-induced myocardial ischemia assessed as reduction in LDH […] levels at 0.3 mg/kg, iv pretreated for 1 hr followed by left anterior descending coronary artery ligation; assay type: functional, organism-based
Mus musculus [20] = assay: Cardioprotective activity in C57BL mouse model of left anterior descending coronary artery ligation-induced myocardial ischemia assessed as reduction in creatine kinase levels at 0.3 mg/kg, iv pretreated for 1 hr followed by left anterior descending coronary artery ligation; assay type: functional, organism-based
Mus musculus [21] = assay: Cardioprotective activity in C57BL mouse model of left anterior descending coronary artery ligation-induced myocardial ischemia assessed as survival rate at 0.3 mg/kg, iv treated 1 hr after left anterior descending coronary artery ligation and measured after 7 days post LAD; assay type: functional

CCCCCCCCNc1nc(=O)n(Cc2ccccc2)cc1C
Activity (Mus musculus [1]): Active
inhibition [2]: inactive
Activity [3]: Non-Toxic
Activity (Mus musculus [4]): Active
inhibition [5]: Active
inhibition [6]: Active
Activity (Mus musculus [7]): Active
fold change (FC) [8]: 3.1
Activity (Cardiac muscle cell): Toxic
inhibition [9]: Active
inhibition [10]: Active
fold change (FC) [11]: 2.8
Activity (Mus musculus [12]): Active
inhibition [13]: Active
fold change (FC) [14]: 2.7
fold change (FC) [15]: 3.3
fold change (FC) [16]: 15
inhibition [17]: inactive
Activity (Mus musculus [18]): Active
Activity (Mus musculus [19]): Active
Activity (Mus musculus [20]): Active
survival at 0.3 mg/kg (Mus musculus [21]): 100%

Reference: ChEMBL document CHEMBL4382262, “Structurally Simple, Readily Available Peptidomimetic 1-Benzyl-5-methyl-4-( n-octylamino)pyrimidin-2(1 H)-one Exhibited Efficient Cardioprotection in a Myocardial Ischemia (MI) Mouse Model” (J Med Chem, 2018)
